Results from BindingDB's records for doi:10.1016/s0960-894x(00)00185-2 (Yale University, 2000).

Tests used:
[1] = target: D(2) dopamine receptor (Rattus norvegicus) (UniProt P61169); experiment: Compound was evaluated for affinity towards dopamine D2-like receptor in homogenate of caudate putamen tissue from rat brain
[2] = target: 5-hydroxytryptamine receptor 2A (Rattus norvegicus, UniProt P14842); experiment: ChEBML_2648
Experimental: Compound was evaluated for affinity towards cerebral 5-hydroxytryptamine 2A receptor in homogenate of caudate putamen tissue from rat brain

D(1A) dopamine receptor = D(1A) dopamine receptor (Rattus norvegicus, UniProt P18901); experiment: ChEBML_59008
Experimental: Compound was evaluated for affinity towards dopamine D1-like receptor in homogenate of caudate putamen tissue from rat brain

[3] = target: T1, 5-hydroxytryptamine receptor 2C (Rattus norvegicus, UniProt P08909); experiment: ChEBML_2831
T1 sequence (P08909 whole entry): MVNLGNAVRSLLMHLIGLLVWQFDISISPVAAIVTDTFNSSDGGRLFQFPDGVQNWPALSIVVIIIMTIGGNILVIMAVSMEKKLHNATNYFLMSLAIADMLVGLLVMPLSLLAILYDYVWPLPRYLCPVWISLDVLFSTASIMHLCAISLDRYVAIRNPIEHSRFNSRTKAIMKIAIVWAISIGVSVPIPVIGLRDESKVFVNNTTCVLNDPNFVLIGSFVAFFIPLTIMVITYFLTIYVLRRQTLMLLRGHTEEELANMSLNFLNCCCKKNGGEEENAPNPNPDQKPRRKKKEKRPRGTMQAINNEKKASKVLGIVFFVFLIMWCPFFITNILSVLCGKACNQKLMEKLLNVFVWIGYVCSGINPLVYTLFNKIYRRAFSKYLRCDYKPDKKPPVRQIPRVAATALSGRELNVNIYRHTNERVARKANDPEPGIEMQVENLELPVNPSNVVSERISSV
Experimental: Compound was evaluated for affinity towards cerebral 5-hydroxytryptamine 2C receptor in homogenate of caudate putamen tissue from rat brain

D(2) dopamine receptor (Rattus norvegicus), sequence (P61169 whole entry, looked up): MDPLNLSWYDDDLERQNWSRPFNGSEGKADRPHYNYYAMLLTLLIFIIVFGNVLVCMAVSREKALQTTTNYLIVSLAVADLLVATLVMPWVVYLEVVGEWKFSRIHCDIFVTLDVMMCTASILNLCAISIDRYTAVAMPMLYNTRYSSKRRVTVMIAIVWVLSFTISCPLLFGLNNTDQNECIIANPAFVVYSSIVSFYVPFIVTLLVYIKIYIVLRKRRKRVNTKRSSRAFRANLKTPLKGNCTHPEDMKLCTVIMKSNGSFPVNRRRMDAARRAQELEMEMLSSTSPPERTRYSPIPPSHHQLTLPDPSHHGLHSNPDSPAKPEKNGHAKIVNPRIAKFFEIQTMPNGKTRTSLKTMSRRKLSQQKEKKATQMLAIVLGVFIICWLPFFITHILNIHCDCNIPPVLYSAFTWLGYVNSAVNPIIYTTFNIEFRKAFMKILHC
D(1A) dopamine receptor, sequence (P18901 whole entry): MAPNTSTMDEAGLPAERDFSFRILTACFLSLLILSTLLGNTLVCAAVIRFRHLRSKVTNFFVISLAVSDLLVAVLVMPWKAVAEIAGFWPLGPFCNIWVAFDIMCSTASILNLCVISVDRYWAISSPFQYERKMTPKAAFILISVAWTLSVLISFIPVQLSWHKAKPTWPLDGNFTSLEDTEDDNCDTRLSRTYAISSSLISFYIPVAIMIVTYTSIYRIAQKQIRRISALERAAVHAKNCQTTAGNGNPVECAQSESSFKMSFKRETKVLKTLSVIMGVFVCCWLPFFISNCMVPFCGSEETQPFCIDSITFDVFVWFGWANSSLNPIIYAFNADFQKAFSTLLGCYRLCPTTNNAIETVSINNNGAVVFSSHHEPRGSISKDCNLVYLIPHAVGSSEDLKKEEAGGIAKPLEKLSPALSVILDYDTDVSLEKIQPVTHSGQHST
5-hydroxytryptamine receptor 2A, sequence (P14842 whole entry): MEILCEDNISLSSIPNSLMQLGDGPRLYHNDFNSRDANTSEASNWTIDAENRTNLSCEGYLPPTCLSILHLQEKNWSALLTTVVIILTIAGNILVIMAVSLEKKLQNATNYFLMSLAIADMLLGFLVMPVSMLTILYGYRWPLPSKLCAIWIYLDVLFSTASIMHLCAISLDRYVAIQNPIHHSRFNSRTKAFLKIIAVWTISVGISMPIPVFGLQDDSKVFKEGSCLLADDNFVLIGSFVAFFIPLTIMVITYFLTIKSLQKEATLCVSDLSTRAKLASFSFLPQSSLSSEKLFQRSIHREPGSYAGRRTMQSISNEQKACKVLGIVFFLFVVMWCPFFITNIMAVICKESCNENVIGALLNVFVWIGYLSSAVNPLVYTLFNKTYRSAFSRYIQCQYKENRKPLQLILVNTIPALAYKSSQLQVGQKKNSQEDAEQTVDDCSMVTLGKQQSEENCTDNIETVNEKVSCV

| Ki [1] [nM] | Ki [2] [nM] | Ki (D(1A) dopamine receptor) [nM] | Ki [3] [nM] | Structure (SMILES) |
| --- | --- | --- | --- | --- |
| 1120 | – | – | – | CN1CCc2cc(Cl)c(O)cc2C(c2cccc(Br)c2)C1 (centres undefined) [5-(3-Bromo-phenyl)-8-chloro-3-methyl-2,3,4,5-tetrahydro-1H-benzo[d]azepin-7-ol] |
| 549 | 17 | 0.61 | 29 | CN1CCc2cc(Cl)c(O)cc2C(c2ccccc2C(=O)C2=CC=C[C@@H]2[Re]([CH]=O)([CH]=O)[CH]=O)C1 (some centres undefined) [Cyclopentadienyltricarbonylrheniumbenzazepine (2`-CPTR-SCH-23390)] |
| > 10000 | 227 | 2.9 | 106 | CN1CCc2cc(Cl)c(O)cc2C(c2cccc(C(=O)C3=CC=C[C@@H]3[Re]([CH]=O)([CH]=O)[CH]=O)c2)C1 (some centres undefined) [Cyclopentadienyltricarbonylrheniumbenzazepine (3`-CPTR-SCH-23390)] |
